# Experimental data: patent publication US12622912B2, “Application of pyrido[1,2-a]pyrimidinone analog” (GUANGZHOU JOYO PHARMATECH CO., LTD, priority 2021, dated 2026)
# Like-named read-outs stand apart in the source and are kept apart here.
# Legend:
# [1] = tested on: HEC-1-A PIK3CA-mutated endometrial cancer cell line; experiment: CTG cell proliferation, HEC-1-A; assay type: cell-based; details: read-out: Absolute IC50
# Procedure: (§1) (2) Reagents • 1) FBS (fetal bovine serum) (purchased from ExCell, product number: FND500); • 2) McCoy's 5A medium (purchased from Gibco, product number: 12330-031); • 3) MEM medium (purchased from Hyclone, product number: SH30024.01). (3) Test Article and Positive Control Article • Test article: compound I; • Positive control article: Alpelisib, molecular weight: 441.47; solvent: DMSO; storage condition after dissolution: −20° C.; supplier: Shanghai TOPSCIENCE Biochemical Technology Co., Ltd., CAS number: 1217486-61-7; (4) The CTG Method was Used to Determine the Cell Proliferation IC50 of the Compound
# (§2) Step 1: Cells in exponential growth phase were harvested, and viable cells were counted with a Vi-Cell XR cytometer. […]
# (§3) Step 3: After 72 hours of drug treatment, 50 μL (½ culture volume) CTG solution that was melted and equilibrated to room temperature was added to each well according to the CTG operation instruction. […] After 10 minutes, the fluorescence signal value was measured with an Envision2104 plate reader.
# (§4) Cell survival rate was calculated using the formula: Vsample/Vvehicle control×100%. Where, Vsample was the reading of the drug treatment group, and Vvehicle control was the average value of the solvent control group. GraphPad Prism 5.0 software was used, and a S-type dosage-survival rate curve was drawn using a nonlinear regression model and IC50 value was calculated.
# [2] = tested on: ME-180 PIK3CA-mutated cervical cancer cell line; experiment: CTG cell proliferation, ME-180; assay type: cell-based; details: ME-180, CTG, 72 hours, read-out: Absolute IC50
# Excerpt: (§5) (2) Reagents • 1) FBS (fetal bovine serum) (purchased from ExCell, product number: FND500); • 2) RPMI1640 medium (purchased from Hyclone, product number: SH30809.01); • 3) McCoy's 5A medium (purchased from Gibco, product number: 12330-031); • 4) MEM medium (purchased from Hyclone, product number: SH30024.01; • 5) MEM NEAA (purchased from Gibco, product number: 11140-050); • 6) Sodium pyruvate (purchased from Gibco). (3) Test Article and Positive Control Article • Test article: compound I; Positive Control Article: • 1) Alpelisib, molecular weight: 441.47; solvent: DMSO; storage condition after dissolution: −20° C.; supplier: Shanghai TOPSCIENCE Biochemical Technology Co., Ltd., CAS number: 1217486-61-7; • 2) Cisplatin, molecular weight: 300.05; solvent: PBS (phosphate buffer saline); storage condition: 2-8° C.; supplier: Qilu Pharmaceutical. (4) The CTG Method was Used to Determine the Cell Proliferation IC50 of the Compound
# (§6) Step 1: Cells in exponential growth phase were harvested, and viable cells were counted with a Vi-Cell XR cytometer. The cell suspension was adjusted to an appropriate concentration with medium. 90 μL of cell suspension was added to each well of a 96-well cell culture plate, and the final cell concentration was 1500-6000 cells/well. […]
# as §3, §4
# [3] = tested on: C-33A PIK3CA-mutated cervical cancer cell line; experiment: CTG cell proliferation, C-33A; assay type: cell-based; details: 72 hours, read-out: Absolute IC50
# Excerpt: as §5, §6, §3, §4
# [4] = tested on: HEC-1-B PIK3CA-mutated endometrial cancer cell line; experiment: CTG cell proliferation, HEC-1-B; assay type: cell-based; details: read-out: Absolute IC50
# Procedure: as §1
# (§7) Step 1: Cells in exponential growth phase were harvested, and viable cells were counted with a Vi-Cell XR cytometer. The cell suspension was adjusted to an appropriate concentration with medium. 90 μL of cell suspension was added to each well of a 96-well cell culture plate, and the final cell concentration was 1500-6000 cells/well.
# Step 2: The initial concentration of administration of compound I and the control drug Alpelisib was 3 μM, serially diluted 3-fold, a total of 9 concentration gradients and a DMSO control, the final concentration of DMSO in each well was 0.1%, placed in a 37° C., 5% CO2 incubator for 72 hours.
# (§8) Step 3: After 72 hours of drug treatment, 50 μL (½ culture volume) CTG solution that was melted and equilibrated to room temperature was added to each well according to the CTG operation instruction. The solution was mixed well with a microplate shaker for 2 minutes, and placed at room temperature. After 10 minutes, the fluorescence signal value was measured with an Envision2104 plate reader.
# as §4
# [5] = tested on: Ca Ski PIK3CA-mutated cervical cancer cell line; experiment: CTG cell proliferation, Ca Ski; assay type: cell-based; details: 72 hours, read-out: Absolute IC50
# Excerpt: as §5, §6, §3, §4
# [6] = tested on: PIK3CA-mutated cervical cancer cells; experiment: CTG cell proliferation, cervical cancer cell lines; assay type: cell-based; details: across PIK3CA-mutated cervical cancer cell lines, 72 hours, Alpelisib: in two cell lines, read-out: half inhibitory concentration
# Excerpt: (2) Reagents • 1) FBS (fetal bovine serum) (purchased from ExCell, product number: FND500); • 2) RPMI1640 medium (purchased from Hyclone, product number: SH30809.01); • 3) McCoy's 5A medium (purchased from Gibco, product number: 12330-031); • 4) MEM medium (purchased from Hyclone, product number: SH30024.01; • 5) MEM NEAA (purchased from Gibco, product number: 11140-050); • 6) Sodium pyruvate (purchased from Gibco). […]
# as §2, §3, §4
# [7] = tested on: TCCSUP PIK3CA-mutated bladder cancer cell line; experiment: CTG cell proliferation, TCCSUP; assay type: cell-based; details: 72 hours, read-out: Absolute IC50
# Excerpt: (§9) (2) Reagents • 1) FBS (fetal bovine serum) (purchased from ExCell, product number: FND500); • 2) MEM medium (purchased from Hyclone, product number: SH30024.01; • 3) MEM NEAA (purchased from Gibco, product number: 11140-050); • 4) Sodium pyruvate (purchased from Gibco). […] (4) The CTG Method was Used to Determine the Cell Proliferation IC50 of the Compound
# as §7, §8
# (§10) Cell survival rate was calculated using the formula: Vsample/Vvehicle control×100%. Where, Vsample was the reading of the drug treatment group, and Vvehicle control was the average value of the solvent control group.
# [8] = tested on: J82 PIK3CA-mutated bladder cancer cell line; experiment: CTG cell proliferation, J82; assay type: cell-based; details: 72 hours, read-out: Absolute IC50
# Excerpt: as §9, §7, §8, §10
# [9] = tested on: BT-474 PIK3CA-mutated breast cancer cell line; experiment: CTG cell proliferation, BT-474; assay type: cell-based, human; details: BT-474, CTG, 72 hours; read-out: Absolute IC50
# Excerpt: (§11) (2) Reagents • 1) FBS (fetal bovine serum) (purchased from ExCell, product number: FND500); • 2) DMEM medium (purchased from Gibco, product number: C11995500BT); • 3) Insulin (purchased from Gibco, product number: EPX010-12003-901); • 4) RPMI1640 medium (purchased from Hyclone, product number: SH30809.01); • 5) MEM medium (purchased from Hyclone, product number: SH30024.01). (3) Test Article and Positive Control Article • Test article: compound I; • Positive control article: Cisplatin, Molecular weight: 300.05; Solvent: PBS (phosphate buffer saline); Storage condition: 2-8° C.; Supplier: Qilu Pharmaceutical. (4) The CTG Method was Used to Determine the Cell Proliferation IC50 of the Compound.
# as §7
# (§12) Step 2: The initial concentration of administration of compound I was 3 μM, and the initial concentration of administration of the control drug Cisplatin was 100 μM, and serially diluted 3-fold, a total of 9 concentration gradients and a DMSO control, the final concentration of DMSO in each well was 0.1%, placed in a 37° C., 5% CO2 incubator for 72 hours.
# as §3, §4
# [10] = tested on: T47D PIK3CA-mutated breast cancer cell line; experiment: CTG cell proliferation, T47D; assay type: cell-based; details: 72 hours, read-out: Absolute IC50
# Excerpt: as §11, §7, §12, §3, §4
# [11] = tested on: human breast cancer BT-474 subcutaneous xenograft tumor; experiment: In vivo efficacy, BT-474 subcutaneous xenograft tumor model; parameters: species or system BALB/c nude mice; details: for Tumor volume (Day 20): Mean ± SEM; for T/C / TGI: day 20
# Procedure: Experimental purpose: Study the in vivo efficacy of the test drug on human breast cancer BT-474 subcutaneous xenograft tumor BALB/c nude mouse model.
# (1) Cell culture: human breast cancer BT-474 cells were monolayer cultured in vitro. The culture conditions were that 10% fetal bovine serum, 100 U/ml penicillin (purchased from Gibco) and 100 μg/ml chain Mycin (purchased from Gibco) were added to Hybri-Care medium, and cultured at 37° C. and 5% CO2. Routine digestion and passage were performed with trypsin-EDTA (purchased from Gibco, product number: 25200-072) twice a week. When the cell saturation was 80%-90%, the cells are harvested, counted and inoculated.
# (2) Animals: BALB/c nude mice, female, 6 weeks old, weighing 16-18 grams. Provided by Shanghai Sippe-Bk Lab Animal Co., Ltd.
# (3) Control article: • Both PF05212384 and Everolimus were purchased from Shanghai TOPSCIENCE Biochemical Technology Co., Ltd.
# (4) Tumor inoculation: 0.2 ml (1×10^7) BT-474 cells (matrigel was added, volume 1:1) were subcutaneously inoculated on the right back of each mouse, and the mice were divided into groups and administered with drugs when the average tumor volume reached 122 mm^3. See Table 10 below for the experimental grouping and dosing regimen.
# [12] = 5 mg/kg, oral, once a day for 20 days, vs Solvent 2
# [13] = 20 mg/kg, vein, once a week for 3 weeks, vs Solvent 1
smiles,measurement,setting,value
Cc1nc(NC(=O)N2CCC[C@H]2C(N)=O)sc1-c1ccnc(C(C)(C)C(F)(F)F)c1 [Alpelisib],IC50,[1]; 72 hours,2460 nM
same,IC50,"[1]; Homo sapiens, 72 h",> 2000 nM
same,IC50,[2]; Homo sapiens,2070 nM
same,IC50,[3]; Homo sapiens,> 3000 nM
same,IC50,[4]; 72 hours,2410 nM
same,IC50,"[4]; Homo sapiens, HEC-1B, 72 h",> 2000 nM
same,IC50,[5]; Homo sapiens,> 3000 nM
same,IC50,[6],> 3000 nM
N.N.[Cl][Pt][Cl] [Cisplatin],IC50,[2],2830 nM
same,IC50,[7],3770 nM
same,IC50,[8],1730 nM
same,IC50,[3],3560 nM
same,IC50,[9],> 100000 nM
same,IC50,[10],36600 nM
same,IC50,[5],16200 nM
"CO[C@H]1C[C@@H]2CC[C@@H](C)[C@@](O)(O2)C(=O)C(=O)N2CCCC[C@H]2C(=O)O[C@H]([C@H](C)C[C@@H]2CC[C@@H](OCCO)[C@H](OC)C2)CC(=O)[C@H](C)/C=C(\C)[C@@H](O)[C@@H](OC)C(=O)[C@H](C)C[C@H](C)/C=C/C=C/C=C/1C [Everolimus, reference compound]",Tumor volume (Day 20),"[11]; 5 mg/kg, oral, once a day for 20 days",82 ± 17 mm^3
same,T/C,[11]; [12],19%
same,TGI,[11]; [12],113%
"CN(C)C1CCN(C(=O)c2ccc(NC(=O)Nc3ccc(-c4nc(N5CCOCC5)nc(N5CCOCC5)n4)cc3)cc2)CC1 [PF05212384, reference compound]",Tumor volume (Day 20),"[11]; 20 mg/kg, vein, once a week for 3 weeks",49 ± 6 mm^3
same,T/C,[11]; [13],15%
same,TGI,[11]; [13],134%
